This is an account of results in US8058243B2, “Method for treating a brain cancer with ifenprodil” (HSC Research and Development Limited Partnership, priority 2006, dated 2011).

SMILES strings stand for the structures. Like-named read-outs stand apart in the source and are kept apart here.

The assay deals with murine neural precursor cells (neurosphere cultures). Description: HTS of LOPAC library against secondary neurosphere cultures, MTT proliferation assay at 3 μM, day 7 (z score, P value). In kind it is cell-based, mouse. A general note: Tetrazolium dyes change colour on reduction, which living cells bring about.
[1] abbreviates: LOPAC primary screen, neurosphere MTT proliferation, 3 μM, day 7.
Setting [2] is: yes/no: significantly inhibited neurosphere proliferation in primary screen.
The mark [3] stands for this setting: LOPAC screen, neurosphere MTT proliferation, 3 μM, day 7.
[4] abbreviates: yes/no: significantly inhibited neurosphere proliferation (P<0.01) in primary screen.
Setting [5] is: LOPAC library screen, 3 μM, MTT, secondary neurosphere cultures, day 7.
[6] abbreviates: primary LOPAC screen, 3 μM, MTT, neurosphere proliferation.
The mark [7] stands for this setting: yes/no: significantly inhibited neurosphere proliferation in the primary screen.
[8] abbreviates: yes/no: significantly inhibited neurosphere proliferation (P<0.01) in the primary screen.
Where [9] appears, read: LOPAC library screen, 3 μM, MTT, neurosphere cultures.
Where [10] appears, read: yes = significantly inhibited neurosphere proliferation (P<0.01) in the primary screen.
Where [11] appears, read: LOPAC library screen at 3 μM, secondary neurosphere cultures, MTT.

Take `COc1ccccc1N1CCNCC1.Cl` [1-(2-Methoxyphenyl)piperazine hydrochloride]: the “Z Score” value is given as −0.6388. This compound had a Z score under setting [1] of −0.639. Also, the Activity result under setting [2] is recorded as “no”.
As to `Cl.Cl.Clc1cccc(N2CCNCC2)c1` [1-(3-Chlorophenyl)piperazine dihydrochloride], under setting [3], the Z score worked out at 0.952. Also, under setting [4], the Activity result is given as “no”.
For `COc1ccc2c(c1)c(CC(=O)O)c(C)n2Cc1ccc(Cl)cc1` [1-(4-Chlorobenzyl)-5-methoxy-2-methylindole-3-acetic acid], the “Z Score” value under setting [5] is on record as −1.584. This compound showed a Z score under setting [6] of −1.584. Also, the Activity entry under setting [7] was “no”.
As for `COc1ccc2c(c1)c(CC(=O)O)c(C)n2Cc1ccc(F)cc1` [1-(4-Fluorobenzyl)-5-methoxy-2-methylindole-3-acetic acid], for the setting “168 h, 3 µM”, the “Z Score” value was −0.5376 and the Z score is −0.538. For the same compound, the Activity result under setting [4] was “no”.
`Oc1ccc(Cn2ccnc2S)cc1` [1-(4-Hydroxybenzyl)imidazole-2-thiol]: under “168 h, 3 µM”, the “Z Score” value is 0.7628 and the Z score was found to be 0.763. In addition, the Activity result under setting [4] is recorded as “no”.
In the same order, the values of `CC1CNCCN1S(=O)(=O)c1cccc2cnccc12.Cl.Cl` (centres unmarked) [1-(5-Isoquinolinylsulfonyl)-2-methylpiperazine dihydrochloride] are 0.3352, 0.335 and “no”.
For the compound `CC1CN(S(=O)(=O)c2cccc3cnccc23)CCN1.Cl.Cl` (centres unmarked) [1-(5-Isoquinolinylsulfonyl)-3-methylpiperazine dihydrochloride], where the note is “168 h, 3 µM”, the “Z Score” value is 0.4769 and the Z score came to 0.477. The Activity result under setting [4] is “no”.
Turning to `Cl.N=C(N)NC(=N)Nc1cccc(Cl)c1` [1-(m-Chlorophenyl)-biguanide hydrochloride], the “Z Score” value is 1.795. The compound further returned a Z score under setting [1] of 1.795. In addition, the Activity result under setting [8] is recorded as “no”.
In the case of `C=CCn1c(=O)c2c(nc(-c3ccc(S(=O)(=O)O)cc3)n2C)n(C)c1=O` [1-Allyl-3,7-dimethyl-8-p-sulfophenylxanthine], under setting [5], the “Z Score” value is recorded as −2.178. Under setting [6], this compound registered a Z score of −2.178. In addition, the Activity entry under setting [7] was “no”.
Take `Cl.NC1(C(=O)O)CCCCC1` [1-Amino-1-cyclohexanecarboxylic acid hydrochloride]: where the note is “168 h, 3 µM”, the “Z Score” value was −0.7495 and the Z score is on record as −0.749. For the same compound, the Activity entry under setting [7] is recorded as “no”.
In the same order, the values of `Nn1nnc2ccccc21` [1-Aminobenzotriazole] are 0.5236, 0.524 and “no”.
As for `Cl.NC1(C(=O)O)CC1` [1-Aminocyclopropanecarboxylic acid hydrochloride], the Activity result is “yes”, the “Z Score” value is given as −2.401 and the Z score was −2.401.
With `Cl.OC[C@H]1NC[C@H](O)[C@@H](O)[C@@H]1O` [1-Deoxynojirimycin hydrochloride], the “Z Score” value under setting [9] stood at 1.242. Under setting [3], this compound displayed a Z score of 1.242. For the same compound, under setting [4], the Activity entry is “no”.
Regarding `Cl.Cl.Cn1cnc(CCN)c1` [1-Methylbistamine dihydrochloride], the “Z Score” value is 0.3068.
`Cl.Cl.Cn1cnc(CCN)c1` [1-Methylhistamine dihydrochloride] registered a Z score under setting [1] of 0.307. Moreover, under setting [10], the Activity result was “no”.
On to `Cn1ccnc1` [1-Methylimidazole], for which, where the note is “168 h, 3 µM”, the “Z Score” value is −0.8469 and the Z score was −0.847. Under setting [10], the Activity entry was “no”.
As for `S=C(Nc1ccccc1)Nc1nccs1` [1-Phenyl-3-(2-thiazolyl)-2-thiourea], where the note is “168 h, 3 µM”, the “Z Score” value came to 1.208 and the Z score is reported as 1.208. In addition, under setting [2], the Activity result is “no”.
For `N=C(N)NC(=N)Nc1ccccc1` [1-Phenylbiguanide], where the note is “168 h, 3 µM”, the “Z Score” value is recorded as −2.689 and the Z score was −2.689. In addition, the Activity result under setting [8] is “yes”.
For `FC(F)(F)c1ccccc1-n1ccnc1` [1-[2-(Trifluoromethyl)phenyl]imidazole], where the note is “168 h, 3 µM”, the “Z Score” value was −0.1576 and the Z score is −0.158. In addition, the Activity entry under setting [2] was “no”.
For `COc1ccc2c(c1)c(CC(=O)O)c(C)n2C(=O)c1ccccc1` [1-benzoyl-5-methoxy-2-methylindole-3-acetic acid], under setting [11], the “Z Score” value is recorded as −0.955. Besides, the Z score under setting [6] is −0.955. Under setting [7], the Activity result was “no”.
On to `c1ccc(-c2ccccn2)nc1` [2,2′-Bipyridyl], for which the “Z Score” value amounted to 1.455. Moreover, under setting [3], the Z score was determined as 1.455. Under setting [4], the Activity result is listed as “no”.
Regarding `CC(=O)C(C)=NO` [2,3-Butanedione monoxime], where the note is “168 h, 3 µM”, the “Z Score” value is given as −1.81 and the Z score is reported as −1.810. Also, under setting [7], the Activity entry is “no”.
As for `CC(=O)C(C)=O` [2,3-Butanedione], the “Z Score” value is −1.642. The Z score under setting [3] is reported as −1.642. Besides, the Activity result under setting [4] was “no”.
Take `COC1=C(OC)C(=O)c2ccccc2C1=O` [2,3-Dimethoxy-1,4-naphthoquinone]: the “Z Score” value was −10.4. The Z score under setting [1] is listed as −10.398. Besides, the Activity result under setting [8] was “yes”.
With `O=[N+]([O-])c1ccc(O[C@@H]2O[C@H](CO)[C@@H](O)[C@H](O)[C@H]2F)c([N+](=O)[O-])c1` [2,4-Dinitrophenyl 2-fluoro-2-deoxy-beta-D-glucopyranoside], under setting [9], the “Z Score” value is listed as 0.772. This compound gave a Z score under setting [3] of 0.772. Also, under setting [4], the Activity entry is listed as “no”.
For `Nc1cc(=O)[nH]c(N)n1` [2,6-Diamino-4-pyrimidinone], the “Z Score” value under setting [11] is −1.072. Under setting [3], this compound yielded a Z score of −1.072. Moreover, under setting [4], the Activity result is listed as “no”.
Take `NC(=O)COc1c(F)cc(SCCNS(=O)(=O)c2ccccc2)cc1F` [2,6-Difluoro-4-[2-(phenylsulfonylamino)ethylthio]phenoxyacetamide]: the “Z Score” value is reported as −0.4983. In addition, the Z score under setting [1] is reported as −0.498. The Activity result under setting [10] is on record as “no”.
Take `Br.Br.N=C(N)SCCN` [2-(2-Aminoethyl)isothiourea dihydrobromide]: for the setting “168 h, 3 µM”, the “Z Score” value was −1.251 and the Z score is reported as −1.251. Also, the Activity entry under setting [7] is “no”.
On to `C[N+](C)(C)CCC(=O)c1cccc2ccccc12.[I-]` [2-(alpha-Naphthoyl)ethyltrimethylammonium iodide], for which, under “168 h, 3 µM”, the “Z Score” value is given as −6.762 and the Z score is given as −6.762. Besides, under setting [10], the Activity result is reported as “yes”.
Consider `O=C[C@H](Cl)[C@@H](O)[C@H](O)[C@H](O)CO` [2-Chloro-2-deoxy-D-glucose], for which the “Z Score” value under setting [5] was −2.364. Under setting [1], this compound gave a Z score of −2.364. Moreover, the Activity entry under setting [10] is recorded as “yes”.
With `Nc1nc(Cl)nc2c1ncn2[C@@H]1O[C@H](COP(=O)([O-])OP(=O)([O-])OP(=O)([O-])[O-])[C@@H](O)[C@H]1O.[Na+].[Na+].[Na+].[Na+]` [2-Chloroadenosine triphosphate tetrasodium], under “168 h, 3 µM”, the “Z Score” value is given as 1.149 and the Z score is 1.149. Under setting [4], the Activity result is listed as “no”.
Regarding `Nc1nc(Cl)nc2c1ncn2[C@@H]1O[C@H](CO)[C@@H](O)[C@H]1O` [2-Chloroadenosine], where the note is “168 h, 3 µM”, the “Z Score” value is −0.396 and the Z score was −0.396. In addition, the Activity result under setting [4] is on record as “no”.
Turning to `NCC(O)(CS(=O)(=O)O)c1ccc(Cl)cc1` (centres unmarked) [2-Hydroxysaclofen], the “Z Score” value under setting [5] is reported as −1.624. For the same compound, under setting [1], the Z score is reported as −1.624. Also, the Activity entry under setting [10] was “no”.
On to `COc1ccc2[nH]c(I)c(CCNC(C)=O)c2c1` [2-Iodomelatonin], for which the “Z Score” value was −0.1348. In addition, under setting [1], the Z score is listed as −0.135. The Activity result under setting [4] is listed as “no”.
As to `Cc1[nH]c2ccc(O)cc2c1CCN.O=C(O)/C=C\C(=O)O` [2-Methyl-5-hydroxytryptamine maleate], the “Z Score” value was 0.5718. Moreover, under setting [1], the Z score came out at 0.572. Besides, under setting [10], the Activity entry was “no”.
As for `Nc1nc(Nc2ccccc2)nc2c1ncn2[C@@H]1O[C@H](CO)[C@@H](O)[C@H]1O` [2-Phenylaminoadenosine], where the note is “168 h, 3 µM”, the “Z Score” value came to 0.5728 and the Z score amounted to 0.573. In addition, under setting [8], the Activity entry was “no”.
With `COc1cc2c(cc1O)CC[C@@H]1[C@@H]2CC[C@]2(C)[C@@H](O)CC[C@@H]12` [2-methoxyestradiol], the “Z Score” value under setting [11] was −0.9833. Moreover, the Z score under setting [1] was −0.983. Moreover, under setting [10], the Activity result is recorded as “no”.
Regarding `Cc1cn([C@H]2C=C[C@@H](CO)O2)c(=O)[nH]c1=O` [2′,3′-didehydro-3′-deoxythymidine], the “Z Score” value under setting [5] was −1.878. The Z score under setting [3] is on record as −1.878. For the same compound, the Activity entry under setting [4] is reported as “no”.
In the case of `Nc1ccn([C@H]2CC[C@@H](CO)O2)c(=O)n1` [2′,3′-dideoxycytidine], the “Z Score” value under setting [5] is recorded as −1.367. In addition, the Z score under setting [1] was −1.367. In addition, the Activity result under setting [8] was “no”.
For the compound `O=c1oc(Cl)c(Cl)c2ccccc12` [3,4-Dichloroisocoumarin], under “168 h, 3 µM”, the “Z Score” value is −1.12 and the Z score is −1.120. For the same compound, the Activity entry under setting [4] is listed as “no”.
In the case of `O=C(O)Cc1ccc(O)c(O)c1` [3,4-Dihydroxyphenylacetic acid], the “Z Score” value is on record as −0.5832. Moreover, the Z score under setting [3] was −0.583. In addition, the Activity entry under setting [4] is recorded as “no”.
In the case of `O=[N+]([O-])c1cc(O)c(O)c([N+](=O)[O-])c1` [3,5-Dinitrocatechol], the “Z Score” value is recorded as −0.5294. For the same compound, under setting [3], the Z score is recorded as −0.529. Besides, the Activity entry under setting [4] is on record as “no”.
